One block for each molecule: values may come before it.
Legend:
Assay in all cases: kinase panel
Assay type in all cases: biochemical
PAK5(h) = PAK5(h) (Homo sapiens, UniProt Q9P286)
In short: (§1)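 Values are percent inhibition from kinome-wide profiling of three series compounds across 231 kinases, with a structurally similar analogue tested on only 98 selected kinases.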

Ros(h) = Ros(h) (Homo sapiens, UniProt P08922)
In short: as §1

Rsk3(h) = Rsk3(h) (Homo sapiens, UniProt Q15349)
In short: as §1

MuSK(h) = MuSK(h) (Homo sapiens, UniProt O15146)
In short: as §1

EphA3(h) = EphA3(h) (Homo sapiens, UniProt P29320)
In short: as §1

HIPK2(h) = HIPK2(h) (Homo sapiens, UniProt Q9H2X6)
In short: as §1

PKA(h) = PKA(h) (Homo sapiens, UniProt P17612)
In short: as §1

MAPKAP-K3(h) = MAPKAP-K3(h) (Homo sapiens, UniProt Q16644)
In short: as §1

MRCKβ(h) = MRCKβ(h) (Homo sapiens, UniProt Q9Y5S2)
In short: as §1

EphA2(h) = EphA2(h) (Homo sapiens, UniProt P29317)
In short: as §1

SAPK2b(h) = SAPK2b(h) (Homo sapiens, UniProt Q15759)
In short: as §1

p70S6K(h) = p70S6K(h) (Homo sapiens, UniProt P23443)
In short: as §1

PKCζ(h) = PKCζ(h) (Homo sapiens, UniProt Q05513)
In short: as §1

CK2α2(h) = CK2α2(h) (Homo sapiens, UniProt P19784)
In short: as §1

MST3(h) = MST3(h) (Homo sapiens, UniProt Q9Y6E0)
In short: as §1

DAPK2(h) = DAPK2(h) (Homo sapiens, UniProt Q9UIK4)
In short: as §1

JNK2α2(h) = JNK2α2(h) (Homo sapiens, UniProt P45984)
In short: as §1

TAO3(h) = TAO3(h) (Homo sapiens, UniProt Q9H2K8)
In short: as §1

MST1(h) = MST1(h) (Homo sapiens, UniProt Q13043)
In short: as §1

GRK6(h) = GRK6(h) (Homo sapiens, UniProt P43250)
In short: as §1

NLK(h) = NLK(h) (Homo sapiens, UniProt Q9UBE8)
In short: as §1

NEK11(h) = NEK11(h) (Homo sapiens, UniProt Q8NG66)
In short: as §1

NEK7(h) = NEK7(h) (Homo sapiens, UniProt Q8TDX7)
In short: as §1

SRPK1(h) = SRPK1(h) (Homo sapiens, UniProt Q96SB4)
In short: as §1

Itk(h) = Itk(h) (Homo sapiens, UniProt Q08881)
In short: as §1

CK1γ3(h) = CK1γ3(h) (Homo sapiens, UniProt Q9Y6M4)
In short: as §1

PAK4(h) = PAK4(h) (Homo sapiens, UniProt O96013)
In short: as §1

MSSK1(h) = MSSK1(h) (Homo sapiens, UniProt Q9UPE1)
In short: as §1

EphB2(h) = EphB2(h) (Homo sapiens, UniProt P29323)
In short: as §1

TGFBR1(h) = TGFBR1(h) (Homo sapiens, UniProt P36897)
In short: as §1

IR(h), activated = IR(h), activated (Homo sapiens, UniProt P06213)
In short: as §1

PDGFRα(h) = PDGFRα(h) (Homo sapiens, UniProt P16234)
In short: as §1

TAO2(h) = TAO2(h) (Homo sapiens, UniProt Q9UL54)
In short: as §1

IGF-1R(h) = IGF-1R(h) (Homo sapiens, UniProt P08069)
In short: as §1

TSSK2(h) = TSSK2(h) (Homo sapiens, UniProt Q96PF2)
In short: as §1

PEK(h) = PEK(h) (Homo sapiens, UniProt Q9NZJ5)
In short: as §1

PKG1α(h) = PKG1α(h) (Homo sapiens, UniProt Q13976)
In short: as §1

Rsk4(h) = Rsk4(h) (Homo sapiens, UniProt Q9UK32)
In short: as §1

Hck(h) activated = Hck(h) activated (Homo sapiens, UniProt P08631)
In short: as §1

MKK6(h) = MKK6(h) (Homo sapiens, UniProt P52564)
In short: as §1

DDR2(h) = DDR2(h) (Homo sapiens, UniProt Q16832)
In short: as §1

Sequence of MSSK1(h) (Q9UPE1 whole entry): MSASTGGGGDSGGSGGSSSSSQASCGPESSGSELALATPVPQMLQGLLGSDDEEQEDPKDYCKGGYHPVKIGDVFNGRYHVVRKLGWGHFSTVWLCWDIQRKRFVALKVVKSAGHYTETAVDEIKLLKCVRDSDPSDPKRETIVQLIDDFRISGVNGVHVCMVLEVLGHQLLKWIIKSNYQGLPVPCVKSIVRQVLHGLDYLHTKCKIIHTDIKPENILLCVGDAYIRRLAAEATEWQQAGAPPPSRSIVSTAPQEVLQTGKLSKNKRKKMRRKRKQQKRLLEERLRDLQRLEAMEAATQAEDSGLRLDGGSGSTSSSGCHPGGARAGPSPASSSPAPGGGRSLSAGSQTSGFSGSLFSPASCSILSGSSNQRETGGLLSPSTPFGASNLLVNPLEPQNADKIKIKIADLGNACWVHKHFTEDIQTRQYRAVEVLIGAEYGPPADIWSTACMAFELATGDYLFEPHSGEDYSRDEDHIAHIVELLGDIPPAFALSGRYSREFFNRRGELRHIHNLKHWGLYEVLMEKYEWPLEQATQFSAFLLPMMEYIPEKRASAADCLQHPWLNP
Sequence of PKCζ(h) (Q05513 whole entry): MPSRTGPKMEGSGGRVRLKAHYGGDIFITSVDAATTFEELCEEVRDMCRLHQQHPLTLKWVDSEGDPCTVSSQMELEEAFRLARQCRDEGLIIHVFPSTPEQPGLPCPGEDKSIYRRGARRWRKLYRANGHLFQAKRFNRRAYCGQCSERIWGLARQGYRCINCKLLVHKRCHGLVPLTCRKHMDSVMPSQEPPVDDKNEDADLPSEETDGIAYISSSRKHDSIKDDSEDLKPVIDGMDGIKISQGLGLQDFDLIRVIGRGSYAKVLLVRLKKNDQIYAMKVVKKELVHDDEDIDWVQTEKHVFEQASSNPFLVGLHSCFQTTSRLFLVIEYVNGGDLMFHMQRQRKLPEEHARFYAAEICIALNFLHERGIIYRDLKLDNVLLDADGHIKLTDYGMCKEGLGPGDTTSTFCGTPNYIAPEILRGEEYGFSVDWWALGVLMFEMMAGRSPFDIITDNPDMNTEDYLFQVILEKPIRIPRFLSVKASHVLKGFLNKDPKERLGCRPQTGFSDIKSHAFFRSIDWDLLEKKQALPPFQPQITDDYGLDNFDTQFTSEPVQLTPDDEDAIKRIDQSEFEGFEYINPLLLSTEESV
Sequence of CK1γ3(h) (Q9Y6M4 whole entry): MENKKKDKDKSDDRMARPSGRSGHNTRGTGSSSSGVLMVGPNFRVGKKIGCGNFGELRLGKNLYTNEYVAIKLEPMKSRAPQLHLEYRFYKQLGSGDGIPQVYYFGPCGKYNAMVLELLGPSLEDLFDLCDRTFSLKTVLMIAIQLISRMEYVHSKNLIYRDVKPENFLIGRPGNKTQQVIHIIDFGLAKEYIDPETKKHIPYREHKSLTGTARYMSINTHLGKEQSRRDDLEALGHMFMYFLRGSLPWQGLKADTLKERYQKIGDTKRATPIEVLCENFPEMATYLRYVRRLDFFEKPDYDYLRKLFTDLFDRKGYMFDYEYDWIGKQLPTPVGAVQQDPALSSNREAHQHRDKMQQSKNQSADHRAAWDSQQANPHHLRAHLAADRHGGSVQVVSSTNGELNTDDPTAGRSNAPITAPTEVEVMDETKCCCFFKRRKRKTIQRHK
Sequence of PEK(h) (Q9NZJ5 30-1116): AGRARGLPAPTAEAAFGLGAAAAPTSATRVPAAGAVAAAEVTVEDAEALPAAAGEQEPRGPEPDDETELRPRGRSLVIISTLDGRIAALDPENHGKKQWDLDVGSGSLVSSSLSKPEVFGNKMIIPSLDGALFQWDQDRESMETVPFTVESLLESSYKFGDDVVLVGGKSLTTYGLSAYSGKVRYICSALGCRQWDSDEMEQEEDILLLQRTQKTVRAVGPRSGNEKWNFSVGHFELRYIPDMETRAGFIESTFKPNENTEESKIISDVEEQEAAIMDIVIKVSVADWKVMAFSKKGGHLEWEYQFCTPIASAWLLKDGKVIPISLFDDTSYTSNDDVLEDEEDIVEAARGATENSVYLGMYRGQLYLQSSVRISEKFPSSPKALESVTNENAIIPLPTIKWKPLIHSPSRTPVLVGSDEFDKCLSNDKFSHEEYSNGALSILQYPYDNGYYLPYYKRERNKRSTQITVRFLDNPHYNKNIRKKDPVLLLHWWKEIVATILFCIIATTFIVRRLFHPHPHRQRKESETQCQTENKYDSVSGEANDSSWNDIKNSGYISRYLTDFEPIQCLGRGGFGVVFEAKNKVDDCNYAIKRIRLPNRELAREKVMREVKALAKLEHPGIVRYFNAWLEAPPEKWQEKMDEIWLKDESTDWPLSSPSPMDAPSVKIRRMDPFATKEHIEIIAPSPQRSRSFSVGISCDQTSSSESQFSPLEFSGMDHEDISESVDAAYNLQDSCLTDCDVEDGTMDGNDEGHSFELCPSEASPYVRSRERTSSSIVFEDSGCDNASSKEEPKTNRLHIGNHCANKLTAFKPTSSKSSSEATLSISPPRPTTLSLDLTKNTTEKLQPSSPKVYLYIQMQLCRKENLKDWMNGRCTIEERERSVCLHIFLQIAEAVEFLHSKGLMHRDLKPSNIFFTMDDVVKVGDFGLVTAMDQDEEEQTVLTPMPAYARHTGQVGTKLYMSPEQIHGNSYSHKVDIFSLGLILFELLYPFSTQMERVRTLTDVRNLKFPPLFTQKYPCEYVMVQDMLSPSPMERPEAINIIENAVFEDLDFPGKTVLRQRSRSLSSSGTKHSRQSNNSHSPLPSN
Sequence of Hck(h) activated (P08631 whole entry): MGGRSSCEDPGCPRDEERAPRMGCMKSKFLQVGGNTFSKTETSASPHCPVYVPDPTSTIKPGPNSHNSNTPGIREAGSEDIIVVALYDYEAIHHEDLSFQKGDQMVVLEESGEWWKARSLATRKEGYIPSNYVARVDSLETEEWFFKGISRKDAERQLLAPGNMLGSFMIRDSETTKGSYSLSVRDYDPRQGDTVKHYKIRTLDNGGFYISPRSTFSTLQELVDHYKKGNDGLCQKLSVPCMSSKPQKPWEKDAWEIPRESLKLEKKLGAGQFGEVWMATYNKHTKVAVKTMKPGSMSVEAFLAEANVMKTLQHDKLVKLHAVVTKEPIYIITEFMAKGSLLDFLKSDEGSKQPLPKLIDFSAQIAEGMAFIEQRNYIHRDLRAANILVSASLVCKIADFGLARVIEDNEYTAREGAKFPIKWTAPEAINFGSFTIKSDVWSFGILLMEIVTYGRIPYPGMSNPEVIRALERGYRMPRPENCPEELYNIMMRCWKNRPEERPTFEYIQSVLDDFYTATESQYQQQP
Sequence of GRK6(h) (P43250 whole entry): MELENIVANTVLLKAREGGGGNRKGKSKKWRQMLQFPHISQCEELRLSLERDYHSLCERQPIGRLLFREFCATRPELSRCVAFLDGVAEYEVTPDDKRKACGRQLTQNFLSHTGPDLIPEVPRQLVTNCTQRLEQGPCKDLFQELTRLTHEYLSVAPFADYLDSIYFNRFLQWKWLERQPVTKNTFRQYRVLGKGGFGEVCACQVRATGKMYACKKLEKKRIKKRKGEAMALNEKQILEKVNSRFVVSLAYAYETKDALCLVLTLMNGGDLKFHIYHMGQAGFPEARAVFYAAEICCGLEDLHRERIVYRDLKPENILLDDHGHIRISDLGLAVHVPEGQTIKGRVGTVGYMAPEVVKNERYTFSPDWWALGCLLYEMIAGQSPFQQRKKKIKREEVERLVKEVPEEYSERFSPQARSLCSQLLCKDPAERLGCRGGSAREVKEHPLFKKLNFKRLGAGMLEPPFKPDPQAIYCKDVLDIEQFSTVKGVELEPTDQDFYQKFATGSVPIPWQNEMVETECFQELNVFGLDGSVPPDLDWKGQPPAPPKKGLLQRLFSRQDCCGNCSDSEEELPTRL
Sequence of TGFBR1(h) (P36897 34-503): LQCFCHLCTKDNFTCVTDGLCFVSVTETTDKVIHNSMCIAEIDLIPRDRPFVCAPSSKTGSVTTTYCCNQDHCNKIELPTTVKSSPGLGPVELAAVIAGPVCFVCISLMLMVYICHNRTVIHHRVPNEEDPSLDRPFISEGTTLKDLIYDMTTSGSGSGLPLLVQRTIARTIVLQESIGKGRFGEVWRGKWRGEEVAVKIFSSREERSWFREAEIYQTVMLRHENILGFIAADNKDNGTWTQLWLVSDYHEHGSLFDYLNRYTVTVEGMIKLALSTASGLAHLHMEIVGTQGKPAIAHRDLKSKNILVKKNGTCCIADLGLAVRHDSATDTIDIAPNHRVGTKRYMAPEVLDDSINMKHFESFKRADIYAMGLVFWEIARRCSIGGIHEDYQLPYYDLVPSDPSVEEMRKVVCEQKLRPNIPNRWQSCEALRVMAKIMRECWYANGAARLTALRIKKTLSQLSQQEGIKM
Sequence of DAPK2(h) (Q9UIK4 whole entry): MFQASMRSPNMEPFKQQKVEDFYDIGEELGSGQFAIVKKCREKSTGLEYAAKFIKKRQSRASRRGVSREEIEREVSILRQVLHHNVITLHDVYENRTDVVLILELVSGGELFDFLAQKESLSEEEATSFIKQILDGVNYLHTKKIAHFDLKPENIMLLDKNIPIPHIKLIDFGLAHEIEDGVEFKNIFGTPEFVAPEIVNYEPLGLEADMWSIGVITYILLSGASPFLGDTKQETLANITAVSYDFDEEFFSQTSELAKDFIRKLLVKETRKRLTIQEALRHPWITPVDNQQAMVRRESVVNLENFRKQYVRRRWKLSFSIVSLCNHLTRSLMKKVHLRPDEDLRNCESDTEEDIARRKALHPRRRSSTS
Sequence of CK2α2(h) (P19784 whole entry): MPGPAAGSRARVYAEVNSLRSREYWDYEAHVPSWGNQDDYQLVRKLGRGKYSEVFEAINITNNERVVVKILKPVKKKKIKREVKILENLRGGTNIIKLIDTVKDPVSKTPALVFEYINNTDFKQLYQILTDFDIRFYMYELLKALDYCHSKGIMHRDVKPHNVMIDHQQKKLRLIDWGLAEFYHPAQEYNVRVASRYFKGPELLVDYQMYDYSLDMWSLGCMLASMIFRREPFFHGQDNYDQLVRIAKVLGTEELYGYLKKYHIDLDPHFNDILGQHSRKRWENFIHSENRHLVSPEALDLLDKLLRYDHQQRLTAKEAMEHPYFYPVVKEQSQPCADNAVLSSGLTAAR

inhibition at 1 µM (PAK5(h)): 16% | inhibition at 1 µM (Ros(h)): 16% | inhibition at 1 µM (Rsk3(h)): 53% | inhibition at 1 µM (MuSK(h)): 48% | inhibition at 1 µM (EphA3(h)): 19% | inhibition at 1 µM (HIPK2(h)): 57% | inhibition at 1 µM (PKA(h)): 29% | inhibition at 1 µM (MAPKAP-K3(h)): 12% | inhibition at 1 µM (MRCKβ(h)): -10% | inhibition at 1 µM (EphA2(h)): 14% | inhibition at 1 µM (SAPK2b(h)): -13% | inhibition at 1 µM (p70S6K(h)): 33% | inhibition at 1 µM (PKCζ(h)): -1% | inhibition at 1 µM (CK2α2(h)): 5% | inhibition at 1 µM (MST3(h)): 6% | inhibition at 1 µM (DAPK2(h)): 2% | inhibition at 1 µM (JNK2α2(h)): 22% | inhibition at 1 µM (TAO3(h)): 36% | inhibition at 1 µM (MST1(h)): 33% | inhibition at 1 µM (GRK6(h)): 0% | inhibition at 1 µM (NLK(h)): 51% | inhibition at 1 µM (NEK11(h)): 4% | inhibition at 1 µM (NEK7(h)): -2% | inhibition at 1 µM (SRPK1(h)): 5% | inhibition at 1 µM (Itk(h)): 18% | inhibition at 1 µM (CK1γ3(h)): 29% | inhibition at 1 µM (PAK4(h)): 42% | inhibition at 1 µM (MSSK1(h)): 12% | inhibition at 1 µM (EphB2(h)): 12% | inhibition at 1 µM (TGFBR1(h)): 28% | inhibition at 1 µM (IR(h), activated): 46% | inhibition at 1 µM (PDGFRα(h)): 8% | inhibition at 1 µM (TAO2(h)): 46% | inhibition at 1 µM (IGF-1R(h)): 64% | inhibition at 1 µM (TSSK2(h)): -9% | inhibition at 1 µM (PEK(h)): 10% | inhibition at 1 µM (PKG1α(h)): 29% | inhibition at 1 µM (Rsk4(h)): 17% | inhibition at 1 µM (Hck(h) activated): 38% | inhibition at 1 µM (MKK6(h)): 17% | inhibition at 1 µM (DDR2(h)): 16%
SMILES: Nc1n[nH]c2ccc(-c3ccnc4[nH]c(-c5ccccc5)cc34)cc12 [Compound 4]

inhibition at 1 µM (PAK5(h)): 10% | inhibition at 1 µM (Ros(h)): 11% | inhibition at 1 µM (Rsk3(h)): 27% | inhibition at 1 µM (MuSK(h)): 13% | inhibition at 1 µM (EphA3(h)): 0% | inhibition at 1 µM (HIPK2(h)): 14% | inhibition at 1 µM (PKA(h)): -6% | inhibition at 1 µM (MAPKAP-K3(h)): -1% | inhibition at 1 µM (MRCKβ(h)): 4% | inhibition at 1 µM (EphA2(h)): -9% | inhibition at 1 µM (SAPK2b(h)): -18% | inhibition at 1 µM (p70S6K(h)): -15% | inhibition at 1 µM (PKCζ(h)): 4% | inhibition at 1 µM (CK2α2(h)): 4% | inhibition at 1 µM (MST3(h)): -3% | inhibition at 1 µM (DAPK2(h)): 13% | inhibition at 1 µM (JNK2α2(h)): -6% | inhibition at 1 µM (TAO3(h)): 4% | inhibition at 1 µM (MST1(h)): 4% | inhibition at 1 µM (GRK6(h)): -8% | inhibition at 1 µM (NLK(h)): 1% | inhibition at 1 µM (NEK11(h)): -6% | inhibition at 1 µM (NEK7(h)): -2% | inhibition at 1 µM (SRPK1(h)): 7% | inhibition at 1 µM (Itk(h)): 20% | inhibition at 1 µM (CK1γ3(h)): 19% | inhibition at 1 µM (PAK4(h)): 37% | inhibition at 1 µM (MSSK1(h)): 13% | inhibition at 1 µM (EphB2(h)): -8% | inhibition at 1 µM (TGFBR1(h)): 21% | inhibition at 1 µM (IR(h), activated): 23% | inhibition at 1 µM (PDGFRα(h)): -12% | inhibition at 1 µM (TAO2(h)): 7% | inhibition at 1 µM (IGF-1R(h)): 14% | inhibition at 1 µM (TSSK2(h)): -9% | inhibition at 1 µM (PEK(h)): 8% | inhibition at 1 µM (PKG1α(h)): 30% | inhibition at 1 µM (Rsk4(h)): 4% | inhibition at 1 µM (Hck(h) activated): 22% | inhibition at 1 µM (MKK6(h)): 2% | inhibition at 1 µM (DDR2(h)): -17%
SMILES: Nc1n[nH]c2ccc(-c3ccnc4[nH]c(-c5cccc(OCc6ccccc6)c5)cc34)cc12 [Compound 5r [SU1261]]
